{"source": "patent US20200383985A1", "about": "“Inhibitors of Protease Activated Receptor-2” (Endosome Therapeutics, Inc., priority 2017, published 2020)", "key": {"PKC and ERK activity": {"system": "PKC and ERK activity", "test": "FRET assays of compartmentalized PKC and ERK in DRG neurons", "type": "cell-based, rat", "settings": "I-343 10 μM, SCH530348 100 nM", "description": "To determine whether trypsin causes PAR2-dependent activation of PKC and ERK, which respectively mediate initial and persistent trypsin-induced hyperexcitability of nociceptors, genetically-encoded Förster Resonance Energy Transfer (FRET) biosensors were expressed in neurons. […] Trypsin (10 or 100 nM) activated PKC at the plasma membrane but not in the cytosol (FIG. 4E-G), and activated ERK in the cytosol and nucleus (FIG. 4H-J). The PAR2 antagonist I-343 (10 μM) inhibited trypsin-induced activation of PKC and ERK, whereas the PAR1 antagonist SCH530348 (100 nM) had no effect (FIG. 4F, I). At the end of experiments, neurons were challenged with the positive controls phorbol 12,13-dibutyrate (PDBu) for EKAR biosensors or PDBu plus phosphatase inhibitor mixture-2 for CKAR biosensors, to ensure that the response of the biosensor was not saturated.\nDRG were collected from C57BL/6 mice and Sprague-Dawley rats (all levels). DRG were incubated with collagenase IV (2 mg/ml) and dispase II (1 mg/ml) for 30 min (mice) and 45 min (rats) at 37° C. DRG were dispersed by trituration with a fire-polished Pasteur pipette. Dissociated neurons were transfected with mPAR2-GFP (1 μg), the FRET biosensors CytoEKAR, NucEKAR, pmCKAR or CytoCKAR (all […]), or with the BRET biosensors PAR2-RLuc8 (125 ng) and βARR2-FYP (475 ng) using the Lonza 4D-Nucleofector X unit according to the manufacturer's instructions. Neurons were plated on laminin- (0.004 mg/ml) and poly-L-Lysine- (0.1 mg/ml) coated glass coverslips for confocal microscopy, on ViewPlate-96 plates (PerkinElmer) for FRET assays, or on CulturPlates (PerkinElmer) for BRET assays. Neurons were maintained in Dulbecco's modified Eagle medium (DMEM) containing 10% fetal bovine serum (FBS), antibiotic-antimitotic, and N1 supplement for 48 h before study.\nRat DRG neurons expressing FRET biosensors were serum-restricted (0.5% FBS overnight), and equilibrated in HBSS-HEPES (10 mM HEPES, pH 7.4, 30 min, 37° C.). FRET was analyzed using an Operetta CLS High-Content Imaging System (PerkinElmer) or an INCell Analyzer 2000 G E Healthcare Life Sciences). For CFP/YFP emission ratio analysis, cells were sequentially excited using a CFP filter (410-430 nm) with emission measured using YFP (520-560 nm) and CFP (460-500 nm) filters. Cells were imaged at 1 or 2 min intervals. Baseline was measured, neurons were challenged with trypsin (10 or 100 nM) or vehicle, and responses recorded for a further 30 min. Neurons were then challenged with phorbol 12,13-dibutyrate (PDBu, 200 nM, 10 min) for EKAR biosensors or PDBu (200 nM) and phosphatase inhibitor cocktail-2 (SigmaAldrich, 10 min) for CKAR biosensors. Data were analyzed using Harmony 4.1 or Image J 1.51 software. Images taken were aligned, cells were selected based on diameter, and fluorescence intensity was calculated for both FRET and CFP channels. Background intensity was subtracted and the FRET ratio was determined as the change in the FRET/donor (EKAR) or donor/FRET (CKAR) emission ratio relative to the baseline for each cell (F/Fo). Cells with >5% changes in F/F0 after PDBu stimulation were selected for analysis. Neurons were incubated with I-343 (10 μM), SCH530348 (100 nM) or vehicle (30 min, 37° C. preincubation and inclusion throughout)."}, "PKC and cAMP": {"system": "PKC and cAMP", "test": "FRET assays of PKC and cAMP in HEK293 cells", "type": "cell-based", "settings": "HEK293 cells", "description": "I-343, but not SCH530348, inhibited trypsin stimulation of PKC and cAMP, which thus depend on PAR2 (FIGS. 19G and H). […] The sustained plasma membrane cAMP response to trypsin support the existence of mechanisms that allow persistent PAR2 signaling, which warrant further investigation.\nHEK293 cells were cultured in DMEM supplemented with 10% (v/v) FBS (5% CO2, 37° C.). When necessary serum restriction was achieved by replacing culture medium with DMEM containing 0.5% FBS overnight. Cells were transiently transfected using polyethylenimine (PEI) (1:6 DNA:PEI).\nHEK293 cells were transiently transfected in 10 cm dishes (˜50% confluency) with Flag-PAR2-HA (2.5 μg) and FRET biosensors CytoEKAR or NucEKAR (2.5 μg) (Jensen, D. D. et al., Sci Transl Med. 2017, 9(392), eaal3447; Thomsen, A. R. B., et al., Cell 2016, 166(4): 907-919). In experiments examining the role of dynamin, cells were transfected with FLAG-PAR2-HA (1.25 μg), FRET biosensor (1.25 μg) and either DynWT-HA, DynK44E-HA or pcDNA3.1 (2.5 μg). At 24 h after transfection, cells were seeded on ViewPlate-96 well plates (PerkinElmer). FRET was assessed 72 h post-transfection, following overnight serum restriction. Cells were equilibrated in HBSS-HEPES (30 min, 37° C.). FRET was measured using a PHERAstar FSX Microplate Reader (BMG LabTech). For CFP/YFP emission ratio analysis, cells were sequentially excited using a CFP filter (425/10 nm) with emission measured using YFP (550/50 nm) and CFP (490/20 nm) filters. FRET was measured before and after stimulation with trypsin (10 nM), NE (100 nM), CS (100 nM), phorbol 12,13-dibutyrate, PDBu (positive control, 1 μM), or vehicle. FRET ratios (donor/acceptor intensity for EKAR, or acceptor/donor intensity for CKAR and Epac) were calculated and corrected to baseline and vehicle treatments to determine ligand-induced FRET (ΔFRET). Treatment effects were determined by comparison of area under the curve values. Signalling inhibitors were dissolved in HBSS-HEPES. PS2 and PS2 inact were dissolved in HBSS-HEPES+1% DMSO. […]"}}, "data": [{"molecule": "CCOC(=O)N[C@@H]1CC[C@@H]2[C@@H](C1)C[C@H]1C(=O)O[C@H](C)[C@H]1[C@H]2/C=C/c1ccc(-c2cccc(F)c2)cn1", "note": "[SCH530348]", "values": [{"measurement": "trypsin-induced activation of PKC and ERK", "setting": "PKC and ERK activity", "value": "no effect"}, {"measurement": "trypsin stimulation of PKC and cAMP", "setting": "PKC and cAMP", "value": "not"}]}]}
